Assay results from ChEMBL document CHEMBL5053532, “Bradykinin-Potentiating Peptide-Paclitaxel Conjugate Directed at Ectopically Expressed Angiotensin-Converting Enzyme in Triple-Negative Breast Cancer” (J Med Chem, 2021).
pIC50, pKd: −log10 of the molar value. Active and inactive are the calls of the source. The calls are words filed in the database; no cut-off is given here. Where a SMILES comes first, the peptide text is derived from it. The star is where a group is joined. Paclitaxel(2'-O-succinyl) = CC(=O)O[C@H]1C(=O)[C@@]2(C)[C@H]([C@H](OC(=O)c3ccccc3)[C@]3(O)C[C@H](OC(=O)[C@H](OC(=O)CCC(=O)*)[C@@H](NC(=O)c4ccccc4)c4ccccc4)C(C)=C1C3(C)C)[C@]1(OC(C)=O)CO[C@@H]1C[C@@H]2O

Tests used:
[1] = target: Angiotensin-converting enzyme (Homo sapiens, UniProt P12821); assay: Binding affinity to human recombinant ACE protein assessed as dissociation constant incubated for 15 mins by […] binding analysis
Chain of Angiotensin-converting enzyme (P12821 whole entry): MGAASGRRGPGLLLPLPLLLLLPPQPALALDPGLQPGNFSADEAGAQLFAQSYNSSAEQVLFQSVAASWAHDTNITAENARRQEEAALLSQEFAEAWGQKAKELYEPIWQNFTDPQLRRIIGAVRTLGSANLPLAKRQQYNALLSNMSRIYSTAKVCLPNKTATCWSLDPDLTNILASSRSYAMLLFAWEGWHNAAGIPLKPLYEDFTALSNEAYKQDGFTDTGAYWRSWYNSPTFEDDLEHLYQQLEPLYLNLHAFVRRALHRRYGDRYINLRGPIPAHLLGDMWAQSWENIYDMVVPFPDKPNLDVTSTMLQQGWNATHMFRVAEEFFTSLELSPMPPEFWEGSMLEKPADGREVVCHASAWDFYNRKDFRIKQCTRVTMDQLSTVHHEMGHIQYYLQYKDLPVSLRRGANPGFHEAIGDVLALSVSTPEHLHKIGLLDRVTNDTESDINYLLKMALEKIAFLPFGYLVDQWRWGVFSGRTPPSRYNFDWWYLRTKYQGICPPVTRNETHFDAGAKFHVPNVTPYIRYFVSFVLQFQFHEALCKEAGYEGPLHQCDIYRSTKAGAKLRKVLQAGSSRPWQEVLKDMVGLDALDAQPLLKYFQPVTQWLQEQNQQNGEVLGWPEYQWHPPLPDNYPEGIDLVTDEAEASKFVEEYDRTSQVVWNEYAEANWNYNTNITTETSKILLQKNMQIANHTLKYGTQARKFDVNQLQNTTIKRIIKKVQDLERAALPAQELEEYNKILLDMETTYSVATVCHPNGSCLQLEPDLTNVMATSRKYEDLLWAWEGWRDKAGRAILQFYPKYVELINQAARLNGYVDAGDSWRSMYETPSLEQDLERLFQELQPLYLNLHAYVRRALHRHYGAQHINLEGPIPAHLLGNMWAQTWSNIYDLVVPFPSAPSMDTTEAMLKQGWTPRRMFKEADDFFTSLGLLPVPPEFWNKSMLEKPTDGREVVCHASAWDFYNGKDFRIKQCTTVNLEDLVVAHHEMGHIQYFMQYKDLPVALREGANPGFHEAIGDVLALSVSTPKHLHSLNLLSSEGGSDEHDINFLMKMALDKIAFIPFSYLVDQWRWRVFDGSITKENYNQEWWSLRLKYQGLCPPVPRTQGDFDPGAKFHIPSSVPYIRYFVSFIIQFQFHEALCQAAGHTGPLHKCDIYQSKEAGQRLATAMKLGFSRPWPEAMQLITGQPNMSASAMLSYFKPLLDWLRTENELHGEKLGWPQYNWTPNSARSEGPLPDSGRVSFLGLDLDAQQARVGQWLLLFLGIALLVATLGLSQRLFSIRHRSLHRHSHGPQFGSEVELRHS

[2] = Stability of the compound in rat plasma assessed as drug residual at 10 uM measured after 48 hrs by LC/MS analysis; format: ADME, cell-free; conditions: read-out: Stability
[3] = Stability of the compound in rat plasma assessed as half life at 10 uM measured after 72 hrs by LC/MS analysis; format: ADME, cell-free
[4] = Stability of the compound in PBS buffer assessed as half life at 10 uM measured after 72 hrs by LC/MS analysis; format: physicochemical
HEK-293T [5] = assay: Antiproliferative activity against ACE-negative human HEK293T cells incubated for 48 hrs by MTT assay; format: functional, cell-based
MDA-MB-231 [6] = assay: Antiproliferative activity against ACE-positive human MDA-MB-231 cells incubated for 48 hrs by MTT assay; format: functional, cell-based; conditions: MDA-MB-231, 48 h
MDA-MB-468 [7] = assay: Antiproliferative activity against ACE-positive human MDA-MB-468 cells incubated for 48 hrs by MTT assay; format: functional, cell-based; conditions: MDA-MB-468, 48 h
HEK-293T [8] = assay: Antiproliferative activity against human HEK293T cells expressing ACE containing plasmid incubated for 48 hrs by MTT assay; format: functional, cell-based
[9] = Drug uptake in human MDA-MB-468 cells assessed as increase in PTX uptake rate at 10 to 20 uM measured after 2 hrs; format: ADME, cell-based; conditions: mda-mb-468, 2 h, dose 10-20 µM
MDA-MB-231 [10] = assay: Induction of apoptosis in ACE-positive human MDA-MB-231 cells assessed as increase in apoptotic cells at 10 nM measured after 48 hrs by Annexin V-FITC/PI staining based fluorescence microscopy; format: functional, cell-based
MDA-MB-468 [11] = assay: Induction of apoptosis in ACE-positive human MDA-MB-468 cells assessed as increase in apoptotic cells at 10 nM measured after 48 hrs by Annexin V-FITC/PI staining based fluorescence microscopy; format: functional, cell-based
[12] = Acute toxicity in BALB/c mouse assessed as rate of weight loss at 60 mg/kg, ip measured for 15 days; format: organism-based; conditions: in vivo, 360 h, time 15 day
[13] = Acute toxicity in BALB/c mouse assessed as rate of weight loss at 80 mg/kg, ip measured for 15 days; format: organism-based; conditions: in vivo, 360 h, time 15 day
[14] = Acute toxicity in BALB/c mouse assessed as rate of weight loss at 100 mg/kg, ip measured for 15 days; format: organism-based; conditions: in vivo, 360 h, time 15 day
[15] = Acute toxicity in BALB/c mouse assessed as survival at 60 mg/kg, ip measured for 15 days; format: organism-based; conditions: in vivo, 360 h, time 15 day
[16] = Acute toxicity in BALB/c mouse assessed as survival at 80 mg/kg, ip measured for 15 days; format: organism-based; conditions: in vivo, 360 h, time 15 day
[17] = Acute toxicity in BALB/c mouse assessed as survival at 100 mg/kg, ip measured for 15 days; format: organism-based; conditions: in vivo, 360 h, time 15 day
[18] = Drug uptake in BALB/c mouse xenografted with human […] cells assessed as PTX level in tumor at 17.6 micromol/kg, ip measured after 1 hr; format: ADME, organism-based, Neoplasm; conditions: in vivo, dose 17.6 µmol/kg
[19] = Drug uptake in BALB/c mouse xenografted with human […] cells assessed as PTX level in tumor at 17.6 micromol/kg, ip measured after 4 hrs; format: ADME, organism-based, Neoplasm; conditions: in vivo, dose 17.6 µmol/kg
[20] = Drug uptake in BALB/c mouse xenografted with human […] cells assessed as PTX level in liver at 17.6 micromol/kg, ip measured after 15 mins to 24 hrs; format: ADME, organism-based; conditions: in vivo, 0.25 h, dose 17.6 µmol/kg
[21] = Drug uptake in BALB/c mouse xenografted with human […] cells assessed as PTX level in kidney at 17.6 micromol/kg, ip measured after 15 mins to 24 hrs; format: ADME, organism-based; conditions: in vivo, 0.25 h, dose 17.6 µmol/kg
[22] = Drug uptake in BALB/c mouse xenografted with human […] cells assessed as PTX level in lung at 17.6 micromol/kg, ip measured after 15 mins to 24 hrs; format: ADME, organism-based; conditions: in vivo, 0.25 h, dose 17.6 µmol/kg
MDA-MB-468 [23] = assay: Antitumor activity in human […] cells xenografted in Balb/c mouse assessed as reduction in tumor growth at 2.4 micromol/kg, ip measured after 4 days; format: functional, organism-based; conditions: dose 2.4 µmol/kg, time 4.0 day
MDA-MB-468 [24] = assay: Antitumor activity in human […] cells xenografted in Balb/c mouse assessed as reduction in tumor growth at 2.4 micromol/kg, ip measured after 28 days relative to control; format: functional; set-up: scale not given: the % may be the effect or the level left; conditions: dose 2.4 µmol/kg, time 28 day
MDA-MB-468 [25] = assay: Antitumor activity in human […] cells xenografted in Balb/c mouse assessed as reduction in tumor growth at 9.6 micromol/kg, ip measured after 28 days relative to control; format: functional; set-up: scale not given: the % may be the effect or the level left; conditions: dose 9.6 µmol/kg, time 28 day
MDA-MB-468 [26] = assay: Antitumor activity in human […] cells xenografted in Balb/c mouse assessed as tumor weight at 2.4 micromol/kg, ip measured after 28 days (reference value: 0.43 g); format: functional; conditions: dose 2.4 µmol/kg, time 28 day
MDA-MB-468 [27] = assay: Antitumor activity in human […] cells xenografted in Balb/c mouse assessed as tumor weight at 9.6 micromol/kg, ip measured after 28 days (reference value: 0.43 g); format: functional; conditions: dose 9.6 µmol/kg, time 28 day
Mus musculus [28] = assay: Toxicity in BALB/c mouse xenografted with human […] cells assessed as decrease in body weight at 2.4 micromol/kg, ip measured after 28 days relative to control; format: organism-based; set-up: scale not given: the % may be the effect or the level left; conditions: 672 h, at 2.4 µmol/kg, time 28 day
Mus musculus [29] = assay: Toxicity in BALB/c mouse xenografted with human […] cells assessed as decrease in body weight at 9.6 micromol/kg, ip measured after 28 days relative to control; format: organism-based; set-up: scale not given: the % may be the effect or the level left; conditions: 672 h, at 9.6 µmol/kg, time 28 day
Mus musculus [30] = assay: Toxicity in BALB/c mouse xenografted with human […] cells assessed as reduction in WBC count at 2.4 micromol/kg, ip measured after 28 days relative to control; format: organism-based; set-up: scale not given: the % may be the effect or the level left; conditions: 672 h, at 2.4 µmol/kg, time 28 day
Mus musculus [31] = assay: Toxicity in BALB/c mouse xenografted with human […] cells assessed as reduction in WBC count at 9.6 micromol/kg, ip measured after 28 days relative to control; format: organism-based; set-up: scale not given: the % may be the effect or the level left; conditions: 672 h, at 9.6 µmol/kg, time 28 day
HEK-293T [32] = assay: Potency index, ratio of PTX IC50 to test compound IC50 antiproliferative activity against ACE-negative human HEK293T cells incubated for 48 hrs by MTT assay; format: functional
MDA-MB-231 [33] = assay: Potency index, ratio of PTX IC50 to test compound IC50 antiproliferative activity against ACE-positive human MDA-MB-231 cells incubated for 48 hrs by MTT assay; format: functional
MDA-MB-468 [34] = assay: Potency index, ratio of PTX IC50 to test compound IC50 antiproliferative activity against ACE-positive human MDA-MB-468 cells incubated for 48 hrs by MTT assay; format: functional
[35] = Stability of the compound in PBS buffer assessed as drug residual at 10 uM measured after 72 hrs by LC/MS analysis; format: physicochemical; conditions: read-out: Stability
[36] = Stability of the compound in rat plasma assessed as drug residual at 10 uM measured after 72 hrs by LC/MS analysis; format: ADME, cell-free; conditions: read-out: Stability
MDA-MB-231 [37] = assay: Induction of apoptosis in ACE-positive human MDA-MB-231 cells assessed as increase in early apoptotic cells by measuring fragmented nuclei at 10 nM after 48 hrs by DAPI staining based fluorescence microscopy; format: functional, cell-based
[38] = Acute toxicity in BALB/c mouse assessed as rate of weight loss at 15 mg/kg, ip measured for 15 days; format: organism-based; conditions: in vivo, 360 h, time 15 day
[39] = Acute toxicity in BALB/c mouse assessed as rate of weight loss at 20 mg/kg, ip measured for 15 days; format: organism-based; conditions: in vivo, 360 h, time 15 day
[40] = Acute toxicity in BALB/c mouse assessed as survival at 15 mg/kg, ip measured for 15 days; format: organism-based; conditions: in vivo, 360 h, time 15 day
[41] = Acute toxicity in BALB/c mouse assessed as survival at 20 mg/kg, ip measured for 15 days; format: organism-based; conditions: in vivo, 360 h, time 15 day
[42] = Drug uptake in BALB/c mouse xenografted with human […] cells measured in tumor at 17.6 micromol/kg, ip measured after 1 hr; format: ADME, organism-based, Neoplasm; conditions: dose 17.6 µmol/kg, read-out: Drug uptake
[43] = Drug uptake in BALB/c mouse xenografted with human […] cells measured in tumor at 17.6 micromol/kg, ip measured after 4 hrs; format: ADME, organism-based, Neoplasm; conditions: dose 17.6 µmol/kg, read-out: Drug uptake
Mus musculus [44] = assay: Toxicity in BALB/c mouse xenografted with human […] cells assessed as body weight loss at 2.4 micromol/kg, ip measured upto 24 days; format: organism-based; conditions: 576 h, dose 2.4 µmol/kg, time < 24 day

CC[C@H](C)[C@H](NC(=O)[C@H](CCC(N)=O)NC(=O)[C@@H]1CCCN1C(=O)[C@H](CCCNC(=N)N)NC(=O)[C@@H]1CCCN1C(=O)[C@H](Cc1c[nH]c2ccccc12)NC(=O)[C@H](CCC(=O)O)NC(=O)CCC(=O)O[C@@H](C(=O)O[C@H]1C[C@@]2(O)[C@@H](OC(=O)c3ccccc3)[C@@H]3[C@]4(OC(C)=O)CO[C@@H]4C[C@H](O)[C@@]3(C)C(=O)[C@H](OC(C)=O)C(=C1C)C2(C)C)[C@@H](NC(=O)c1ccccc1)c1ccccc1)C(=O)N1CCC[C@H]1C(=O)N1CCC[C@H]1C(N)=O ({Paclitaxel(2'-O-succinyl)}-EWPRPQIPP-NH2)
pKd ([1]; read-out: Kd): 6.42
remaining at 48 h, 10 µM [2]: 0.169%
half-life at 10 µM [3]: 5.82 h
half-life at 10 µM [4]: 57.8 h
pIC50 (HEK-293T [5]): 6.21
pIC50 (MDA-MB-231 [6]): 8.02
pIC50 (MDA-MB-468 [7]): 7.91
Activity (HEK-293T [8]): Active
Drug uptake [9]: Active
Activity (MDA-MB-231 [10]): Active
Activity (MDA-MB-468 [11]): Active
Activity [12]: 1.9%
Activity [13]: 4.5%
Activity [14]: 7.2%
Activity [15]: Non-Toxic
Activity [16]: Non-Toxic
Activity [17]: Non-Toxic
Drug uptake [18]: 18067 ng/g
Drug uptake [19]: 10458 ng/g
Drug uptake [20]: Active
Drug uptake [21]: Active
Drug uptake [22]: Active
Activity (MDA-MB-468 [23]): inactive
Activity (MDA-MB-468 [24]): 54%
Activity (MDA-MB-468 [25]): 62%
Activity (MDA-MB-468 [26]): 0.2 g
Activity (MDA-MB-468 [27]): 0.16 g
Activity (Mus musculus [28]): 2.8%
Activity (Mus musculus [29]): 6.4%
Activity (Mus musculus [30]): 17%
Activity (Mus musculus [31]): 22%
Ratio IC50 (HEK-293T [32]): 91.9
Ratio IC50 (MDA-MB-231 [33]): 3.1
Ratio IC50 (MDA-MB-468 [34]): 4.1

CC(=O)O[C@H]1C(=O)[C@@]2(C)[C@H]([C@H](OC(=O)c3ccccc3)[C@]3(O)C[C@H](OC(=O)[C@H](O)[C@@H](NC(=O)c4ccccc4)c4ccccc4)C(C)=C1C3(C)C)[C@]1(OC(C)=O)CO[C@@H]1C[C@@H]2O [PACLITAXEL]
Kd [1]: Not Active
remaining at 72 h, 10 µM [35]: 70.3%
remaining at 72 h, 10 µM [36]: 47.6%
pIC50 (HEK-293T [5]): 8.17
pIC50 (MDA-MB-231 [6]): 8.51
pIC50 (MDA-MB-468 [7]): 8.52
Activity (MDA-MB-231 [37]): Active
Activity (MDA-MB-231 [10]): Active
Activity (MDA-MB-468 [11]): Active
Activity [38]: 4%
Activity [39]: 8.7%
Activity [40]: Non-Toxic
Activity [41]: Non-Toxic
concentration at 1 h [42]: 6470 ng/g
concentration at 4 h [43]: 2250 ng/g
Activity (MDA-MB-468 [23]): inactive
Activity (MDA-MB-468 [24]): 15%
Activity (MDA-MB-468 [25]): 30%
Activity (MDA-MB-468 [26]): 0.26 g
Activity (Mus musculus [44]): Non-Toxic
Activity (Mus musculus [30]): 6.2%
